Data reported in ChEMBL document CHEMBL1122789, “Synthesis and biological activity of structural analogues of the anticancer benzophenanthridine alkaloid nitidine chloride” (1984).

Assays:
[1] = system: B16; assay: Evaluated for anticancer activity in survival tumor system B16 melanocarcinoma at dose 100 mg/kg; assay type: functional, Mus musculus
[2] = system: B16; assay: Evaluated for anticancer activity in survival tumor system B16 melanocarcinoma at dose 12.5 mg/kg; assay type: functional, Mus musculus
[3] = system: B16; assay: Evaluated for anticancer activity in survival tumor system B16 melanocarcinoma at dose 25 mg/kg; assay type: functional, Mus musculus
[4] = system: B16; assay: Evaluated for anticancer activity in survival tumor system B16 melanocarcinoma at dose 6.25 mg/kg; assay type: functional, Mus musculus
[5] = system: B16; assay: Evaluated for anticancer activity in survival tumor system B16 melanocarcinoma at a dose of 200 mg/kg, value was reported as weight difference; assay type: functional, Mus musculus
[6] = system: B16; assay: Evaluated for anticancer activity in survival tumor system B16 melanocarcinoma at a dose of 25 mg/kg, value was reported as weight difference; assay type: functional, Mus musculus
[7] = system: B16; assay: Evaluated for anticancer activity in survival tumor system B16 melanocarcinoma at a dose of 100 mg/kg; Number of Tested survived/number of control survived (7/10); assay type: functional, Mus musculus
[8] = system: B16; assay: Evaluated for anticancer activity in survival tumor system B16 melanocarcinoma at a dose of 25 mg/kg; Number of Tested survived/number of control survived (10/10); assay type: functional, Mus musculus
[9] = system: B16; assay: Evaluated for anticancer activity in survival tumor system B16 melanocarcinoma at a dose of 12.5 mg/kg; Number of Tested survived/number of control survived (9/10); assay type: functional, Mus musculus
[10] = system: B16; assay: Evaluated for anticancer activity in survival tumor system B16 melanocarcinoma at a dose of 200 mg/kg; Number of Tested survived/number of control survived (4/10); assay type: functional, Mus musculus
[11] = system: B16; assay: Evaluated for anticancer activity in survival tumor system B16 melanocarcinoma at a dose of 50 mg/kg; number of Tested survived/number of control survived; assay type: functional, Mus musculus
[12] = Evaluated for anticancer activity in tumor inhibition system CD8F mammary tumor at a dose of 125 mg/kg, value was reported as weight difference; assay type: functional, Mus musculus
[13] = system: KB; assay: Evaluated in vitro for cytotoxicity against KB cell culture system; assay type: functional; conditions: Homo sapiens, read-out: ED50 (the source's name)
[14] = system: L1210; assay: Evaluated for anticancer activity in survival tumor system L1210 lymphoid leukemia at a dose of 25 mg/kg, value was reported as weight difference; assay type: functional, Mus musculus
[15] = system: L1210; assay: Evaluated for anticancer activity in survival tumor system L1210 lymphoid leukemia at a dose of 3.125 mg/kg, value was reported as weight difference; assay type: functional, Mus musculus
[16] = system: L1210; assay: Evaluated for anticancer activity in survival tumor system L1210 lymphoid leukemia at a dose of 50 mg/kg, value was reported as weight difference; assay type: functional, Mus musculus
[17] = system: L1210; assay: Evaluated for anticancer activity in survival tumor system L1210 lymphoid leukemia at a dose of 6.25 mg/kg, value was reported as weight difference; assay type: functional, Mus musculus
[18] = system: L1210; assay: Evaluated for anticancer activity in survival tumor system L1210 lymphoid leukemia at dose 12.5 mg/kg; assay type: functional, Mus musculus
[19] = system: L1210; assay: Evaluated for anticancer activity in survival tumor system L1210 lymphoid leukemia at a dose of 25 mg/kg; Number of Tested survived/number of control survived (6/6); assay type: functional, Mus musculus
[20] = system: Lewis lung carcinoma cell line; assay: Evaluated for anticancer activity in survival tumor system Lewis lung (LL) carcinoma at dose 25 mg/kg; assay type: functional, Mus musculus
[21] = system: L1210; assay: Evaluated for anticancer activity in survival tumor system L1210 lymphoid leukemia at dose 50 mg/kg; assay type: functional, Mus musculus
[22] = system: L1210; assay: Evaluated for anticancer activity in survival tumor system L1210 lymphoid leukemia at dose 6.25 mg/kg; assay type: functional, Mus musculus
[23] = system: Lewis lung carcinoma cell line; assay: Evaluated for anticancer activity in survival tumor system Lewis lung (LL) carcinoma at dose 50 mg/kg; assay type: functional, Mus musculus
[24] = system: MX1; assay: Evaluated for anticancer activity in tumor inhibition system MX-1 breast xenograph at a dose of 300 mg/kg; Number of Tested survived/number of control survived (1/6); assay type: functional, Homo sapiens
[25] = system: Lewis lung carcinoma cell line; assay: Evaluated for anticancer activity in survival tumor system Lewis lung (LL) carcinoma at a dose of 25 mg/kg; number of Tested survived/number of control survived; assay type: functional, Mus musculus
[26] = system: Lewis lung carcinoma cell line; assay: Evaluated for anticancer activity in survival tumor system tumor system Lewis lung (LL) carcinoma at a dose of 200 mg/kg; Number of Tested survived/number of control survived (2/10); assay type: functional, Mus musculus
[27] = system: MX1; assay: Evaluated for anticancer activity in tumor inhibition system MX-1 breast xenograph at a dose of 600 mg/kg; Number of Tested survived/number of control survived (0/6); assay type: functional, Homo sapiens
[28] = system: MX1; assay: Evaluated for anticancer activity in tumor inhibition system MX-1 breast xenograph at a dose of 75 mg/kg; Number of Tested survived/number of control survived (4/6); assay type: functional, Homo sapiens
[29] = system: MX1; assay: Evaluated for anticancer activity in tumor inhibition system MX-1 breast xenograph at dose 75 mg/kg; assay type: functional, Homo sapiens
[30] = system: MX1; assay: Evaluated for anticancer activity in tumor inhibition system MX-1 breast xenograph at a dose of 75 mg/kg, value was reported as weight difference; assay type: functional, Homo sapiens
[31] = system: Lewis lung carcinoma cell line; assay: Evaluated for anticancer activity in survival tumor system Lewis lung (LL) carcinoma at a dose of 100 mg/kg, value was reported as weight difference; assay type: functional, Mus musculus
[32] = system: Lewis lung carcinoma cell line; assay: Evaluated for anticancer activity in survival tumor system Lewis lung (LL) carcinoma at a dose of 200 mg/kg, value was reported as weight difference; assay type: functional, Mus musculus
[33] = system: P388; assay: Evaluated for anticancer activity in survival tumor system P388 lymphocytic leukemia at dose 100 mg/kg; assay type: functional, Mus musculus
[34] = system: P388; assay: Evaluated for anticancer activity in survival tumor system P388 lymphocytic leukemia at a dose of 12.5 mg/kg;Number of Tested survived/number of control survived (5/6); assay type: functional, Mus musculus
[35] = system: P388; assay: Evaluated for anticancer activity in survival tumor system P388 lymphocytic leukemia at dose 25 mg/kg; assay type: functional, Mus musculus
[36] = system: P388; assay: Evaluated for anticancer activity in survival tumor system P388 lymphocytic leukemia at dose 50 mg/kg; assay type: functional, Mus musculus
[37] = system: P388; assay: Evaluated for anticancer activity in survival tumor system P388 lymphocytic leukemia at a dose of 100 mg/kg, value was reported as weight difference; assay type: functional, Mus musculus
[38] = system: P388; assay: Evaluated for anticancer activity in survival tumor system P388 lymphocytic leukemia at a dose of 50 mg/kg, value was reported as weight difference; assay type: functional, Mus musculus
[39] = Evaluated for anticancer activity in tumor inhibition system colon 38 at a dose of 400 mg/kg, value was reported as weight difference; assay type: functional, Mus musculus
[40] = Evaluated for anticancer activity in tumor inhibition system colon 38 tumor at dose 100 mg/kg; assay type: functional, Mus musculus
[41] = Evaluated for anticancer activity in tumor inhibition system colon 38 tumor at dose 200 mg/kg; assay type: functional, Mus musculus
[42] = Evaluated for anticancer activity in tumor inhibition system colon 38 tumor at dose 50 mg/kg; assay type: functional, Mus musculus
[43] = Evaluated for anticancer activity in tumor inhibition system colon 38 at a dose of 100 mg/kg, value was reported as weight difference; assay type: functional, Mus musculus
[44] = system: L1210; assay: Evaluated for anticancer activity in survival tumor system L1210 lymphoid leukemia at dose 25 mg/kg; conditions: Mus musculus
[45] = system: P388; assay: Evaluated for anticancer activity in survival tumor system P388 lymphocytic leukemia at a dose of 50 mg/kg;Number of Tested survived/number of control survived (5/5); conditions: Mus musculus

## COc1cc2c[n+](C)c3c(c2cc1OC)Cc1cc2c(cc1-3)OCO2.[Cl-]
[1]
  T/C: 120%
[2]
  T/C: 131%
[3]
  T/C: 139%
[4]
  T/C: 148%
[5]
  Weight change: -4.2
[6]
  Weight change: -2.5
[7]
  Survival: 7
[8]
  Survival: 10
[9]
  Survival: 9
[10]
  Survival: 4
[11]
  Survival: 10
[12]
  Weight change: -3.2
[13]
  EC50: 0.038 µg/mL
[14]
  Weight change: -5.4
[15]
  Weight change: -1.9
[16]
  Weight change: -5.8
[17]
  Weight change: -3.2
[18]
  T/C: 156%
[19]
  Survival: 6
[20]
  T/C: 114%
[21]
  T/C: 198%
[22]
  T/C: 154%
[23]
  T/C: 119%
[24]
  Survival: 1
[25]
  Survival: 10
[26]
  Survival: 2
[27]
  Survival: 0
[28]
  Survival: 4
[29]
  T/C: 102%
[30]
  Weight change: -4.5
[31]
  Weight change: -3.8
[32]
  Weight change: -4.9
[33]
  T/C: 168%
[34]
  Survival: 5
[35]
  T/C: 151%
[36]
  T/C: 149%
[37]
  Weight change: -5.8
[38]
  Weight change: -5
[39]
  Weight change: -6.2
[40]
  T/C: 107%
[41]
  T/C: 97%
[42]
  T/C: 94%
[43]
  Weight change: -1.9
[44]
  T/C: 165%
[45]
  Survival: 5
